Results reported in US20220062296A1, “COMBINATIONS OF GABAA ALPHA 5 AGONISTS AND SV2A INHIBITORS AND METHODS OF USING IN THE TREATMENT OF COGNITIVE IMPAIRMENT” (AGENEBIO, INC., priority 2020, published 2022).

Legend:
aMCI subjects = experiment: Explicit 3-alternative forced choice task (lure identification); assay type: in vivo, human
Excerpt: There are various tests known in the art for assessing cognitive function in humans, for example and without limitation, the clinical global impression of change scale (CIBIC-plus scale); the Mini Mental State Exam (MMSE); the Neuropsychiatric Inventory (NPI); the Clinical Dementia Rating Scale (CDR); the Cambridge Neuropsychological Test Automated Battery (CANTAB); the Sandoz Clinical Assessment-Geriatric (SCAG), the Buschke Selective Reminding Test (Buschke and Fuld, 1974); the Verbal Paired Associates subtest; the Logical Memory subtest; the Visual Reproduction sub test of the Wechsler Memory Scale-Revised (WMS-R) (Wechsler, 1997); the Benton Visual Retention Test, or MATRICS consensus neuropsychological test battery which includes tests of working memory, speed of processing, attention, verbal learning, visual learning, reasoning and problem solving and social cognition. See Folstein et al., J Psychiatric Res 12: 189-98, (1975); Robbins et al., Dementia 5: 266-81, (1994); Rey, L'examen clinique en psychologie, (1964); Kluger et al., J Geriatr Psychiatry Neurol 12:168-79, (1999); Marquis et al., 2002 and Masur et al., 1994. Also see Buchanan, R. W., Keefe, R. S. E., Umbricht, D., Green, M. F., Laughren, T., and Marder, S. R. (2011), The FDA-NIMH-MATRICS guidelines for clinical trial design of cognitive-enhancing drugs: what do we know 5 years later? Schizophr. Bull. 37, 1209-1217. Another example of a cognitive test in humans is the explicit 3-alternative forced choice task. […]
(§1) The activity of the subject's medial temporal lobe is measured by functional MRI during the subject's participation in an explicit 3-alternative forced choice task, where participants view novel, repeated and similar (“lure”) stimuli. […]
as §1

[1] = tested on: aged-impaired (AI) Long-Evans rats; experiment: Morris Water Maze (MWM) retention trial, levetiracetam; assay type: in vivo, rat; conditions: for time spent in the target quadrant (percentage of total swimming time): retention trial 24 hours after training
Procedure: Six aged-impaired (AI) Long-Evans rats (as characterized above) were tested for their memory of new spatial information in the Morris water maze (MWM), under different drug/control treatment conditions (vehicle control and two different dosage levels of levetiracetam). A retention trial was performed after the training trials, as described below. The MWM apparatus consists of a large, circular pool (diameter 1.53 m; height, 0.58 m) filled with water (27° C.) that is made opaque through the addition of non-toxic pigment or some other substance. In the typical “hidden platform” version of the test, rats are trained to find a camouflaged white escape platform (height, 34.5 cm) that is positioned in the center of one quadrant of the maze about 1.0 cm below the water surface. This platform can be retracted to the bottom of the tank or raised to its normal position from outside the maze during behavioral testing. The location of the platform remains constant from trial to trial. Because there are no local cues that mark the position of the platform, the rat's ability to locate it efficiently from any starting position at the perimeter of the pool depends on using information surrounding the maze. The maze is surrounded by black curtains to which white patterns are affixed to provide a configuration of spatial cues. A second platform (height 37.5 cm), with its surface painted black is elevated 2 cm above the water surface during cue training to control for factors unrelated to cognition. The behavior of a rat in the pool is recorded by a camera that is suspended 2.5 m above the center of the pool. The camera is connected to a video tracking system (HVS Image Advanced Tracker VP200) and a PC computer running HVS software developed by Richard Baker of HVS Image, Hampton, UK. […] On each training trial, the rat was released in the maze from one of four equally spaced starting positions around the perimeter of the pool. […] In the retention trial, the time the AI rats spent swimming in the target quadrant is measured and further plotted as a percentage of total swimming time. […]

## CC[C@@H](C(N)=O)N1CCCC1=O [levetiracetam, (2S)-2-(2-oxopyrrolidin-1-yl)butanamide]
aMCI subjects; levetiracetam 62.5 mg BID, p=0.041
  performance in the explicit 3-alternative forced choice task: improves significantly
aMCI subjects; levetiracetam 125 mg twice a day for two weeks, p=0.039
  performance in the explicit 3-alternative forced choice task: improves significantly
aMCI subjects; levetiracetam 250 mg BID, p=0.2396
  performance in the explicit 3-alternative forced choice task: does not significantly improve
[1]; levetiracetam 5 mg/kg/day i.p., vs vehicle
  time spent in the target quadrant (percentage of total swimming time): did not significantly improve
[1]; levetiracetam 10 mg/kg/day i.p., retention trial
  time spent in the target annulus: effectiveness of the 10 mg/kg/day levetiracetam treatment was also seen
[1]; levetiracetam 10 mg/kg/day i.p.
  time spent in the target quadrant (percentage of total swimming time): approximately 35%
